Results published in US8642544B2, “N-terminus conformationally constrained GLP-1 receptor agonist compounds” (Amylin Pharmaceuticals, LLC, priority 2009, dated 2014).
pEC50: −log10 of the molar value. Read-outs that look alike come from different tables or passages of the source.

Target: T1, GLP-1 receptor (Rattus norvegicus, UniProt P32301)
T1 construct: 96-well assay plate containing RIN m5f cell membranes in an ATP/GTP mixture; endogenous in cells; host or cells: RIN m5f cell membranes
T1 sequence (P32301 22-463): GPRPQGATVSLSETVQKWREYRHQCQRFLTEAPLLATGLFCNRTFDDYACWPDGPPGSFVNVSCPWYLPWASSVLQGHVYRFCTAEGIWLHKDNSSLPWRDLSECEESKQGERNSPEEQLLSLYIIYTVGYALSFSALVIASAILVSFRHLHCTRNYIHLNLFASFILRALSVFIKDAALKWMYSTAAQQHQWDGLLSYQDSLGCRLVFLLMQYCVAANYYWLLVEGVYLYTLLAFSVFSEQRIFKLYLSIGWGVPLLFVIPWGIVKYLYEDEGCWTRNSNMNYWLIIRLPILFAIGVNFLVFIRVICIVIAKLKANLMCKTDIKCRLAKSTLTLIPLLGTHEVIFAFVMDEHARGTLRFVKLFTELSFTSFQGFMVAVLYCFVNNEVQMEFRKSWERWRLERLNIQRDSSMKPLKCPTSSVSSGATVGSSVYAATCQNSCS
Test: in vitro functional assay at the GLP-1 receptor (cyclase, cAMP production in RIN m5f cell membranes)
Type: biochemical
Details: for EC50: Cyclase GLP-1 Receptor EC50 (nM)
Method: The compounds shown in Table 1 below were analyzed in an in vitro functional assay at the GLP-1 receptor. The assay was conducted as follows: Membrane fractions were prepared from confluent cultures of RIN m5f cells. Compounds were serially diluted with an assay buffer, and then added to a 96-well assay plate containing RIN m5f cell membranes in an ATP/GTP mixture. Cyclase activities were determined by measuring the production of cAMP induced through GLP-1 receptor activation. Quantification of cAMP production was achieved through a competitive chemiluminescence assay with a biotinylated-cAMP probe using Perkin Elmer Fusion™-Alpha Microplate Analyzer (AlphaScreen™ technology). The compound EC50 values were obtained through fitting the concentration-response curves to a four-parameter logistic equation within GraphPad PRISM® software.

[1] = Table 1, RIN m5f cell membranes, cAMP production (AlphaScreen)

Row | Structure (SMILES) | EC50 [1] | further results
1 | CC[C@H](C)[C@H](NC(=O)[C@H](Cc1ccccc1)NC(=O)[C@H](CC(C)C)NC(=O)[C@H](CCCNC(=N)N)NC(=O)[C@@H](NC(=O)[C@H](C)NC(=O)[C@H](CCC(=O)O)NC(=O)[C@H](CCC(=O)O)NC(=O)[C@H](CCC(=O)O)NC(=O)[C@H](CC(C)C)NC(=O)[C@H](CCC(N)=O)NC(=O)[C@H](CCCCN)NC(=O)[C@H](CO)NC(=O)[C@H](CC(C)C)NC(=O)[C@H](CC(=O)O)NC(=O)[C@H](CO)NC(=O)[C@@H](NC(=O)[C@H](Cc1ccccc1)NC(=O)[C@@H](NC(=O)CNC(=O)[C@@H]1CSCN1C(=O)CNC(=O)[C@@H](N)Cc1c[nH]cn1)[C@@H](C)O)[C@@H](C)O)C(C)C)C(=O)N[C@@H](CCC(=O)O)C(=O)N[C@@H](Cc1ccccc1)C(=O)N[C@@H](CC(C)C)C(=O)N[C@@H](CCCCN)C(=O)N[C@@H](CC(N)=O)C(N)=O [5C] | – | pEC50 (Table 1, RIN m5f cell membranes, cAMP production (AlphaScreen), read-out: Cyclase GLP-1 Receptor EC50): 8.98
2 | CC[C@H](C)[C@H](NC(=O)[C@H](Cc1ccccc1)NC(=O)[C@H](CC(C)C)NC(=O)[C@H](CCCNC(=N)N)NC(=O)[C@@H](NC(=O)[C@H](C)NC(=O)[C@H](CCC(=O)O)NC(=O)[C@H](CCC(=O)O)NC(=O)[C@H](CCC(=O)O)NC(=O)[C@H](CC(C)C)NC(=O)[C@H](CCC(N)=O)NC(=O)[C@H](CCCCN)NC(=O)[C@H](CO)NC(=O)[C@H](CC(C)C)NC(=O)[C@H](CC(=O)O)NC(=O)[C@H](CO)NC(=O)[C@@H](NC(=O)[C@H](Cc1ccccc1)NC(=O)[C@@H](NC(=O)CNC(=O)[C@@H]1CCCN1C(=O)[C@@H](NC(=O)[C@@H](N)Cc1c[nH]cn1)C(C)C)[C@@H](C)O)[C@@H](C)O)C(C)C)C(=O)N[C@@H](CCC(=O)O)C(=O)N[C@@H](Cc1ccccc1)C(=O)N[C@@H](CC(C)C)C(=O)N[C@@H](CCCCN)C(=O)N[C@@H](CC(N)=O)C(N)=O [6C] | 152 nM | –
3 | CC[C@H](C)[C@H](NC(=O)[C@H](Cc1ccccc1)NC(=O)[C@H](CC(C)C)NC(=O)[C@H](CCCNC(=N)N)NC(=O)[C@@H](NC(=O)[C@H](C)NC(=O)[C@H](CCC(=O)O)NC(=O)[C@H](CCC(=O)O)NC(=O)[C@H](CCC(=O)O)NC(=O)[C@H](CC(C)C)NC(=O)[C@H](CCC(N)=O)NC(=O)[C@H](CCCCN)NC(=O)[C@H](CO)NC(=O)[C@H](CC(C)C)NC(=O)[C@H](CC(=O)O)NC(=O)[C@H](CO)NC(=O)[C@@H](NC(=O)[C@H](Cc1ccccc1)NC(=O)[C@@H](NC(=O)[C@@H]1CSSC[C@@H](NC(=O)[C@@H](N)Cc2c[nH]cn2)C(=O)N2CCC[C@H]2C(=O)N1)[C@@H](C)O)[C@@H](C)O)C(C)C)C(=O)N[C@@H](CCC(=O)O)C(=O)N[C@@H](Cc1ccccc1)C(=O)N[C@@H](CC(C)C)C(=O)N[C@@H](CCCCN)C(=O)N[C@@H](CC(N)=O)C(N)=O [8B] | 1.26 nM | –
4 | CC[C@H](C)[C@H](NC(=O)[C@H](Cc1ccccc1)NC(=O)[C@H](CC(C)C)NC(=O)[C@H](CCCNC(=N)N)NC(=O)[C@@H](NC(=O)[C@H](C)NC(=O)[C@H](CCC(=O)O)NC(=O)[C@H](CCC(=O)O)NC(=O)[C@H](CCC(=O)O)NC(=O)[C@H](CC(C)C)NC(=O)[C@H](CCC(N)=O)NC(=O)[C@H](CCCCN)NC(=O)[C@H](CO)NC(=O)[C@H](CC(C)C)NC(=O)[C@H](CC(=O)O)NC(=O)[C@H](CO)NC(=O)[C@@H](NC(=O)[C@H](Cc1ccccc1)NC(=O)[C@@H](NC(=O)[C@H]1CSSC[C@@H](NC(=O)[C@@H](N)Cc2c[nH]cn2)C(=O)N2CCC[C@H]2C(=O)N1)[C@@H](C)O)[C@@H](C)O)C(C)C)C(=O)N[C@@H](CCC(=O)O)C(=O)N[C@@H](Cc1ccccc1)C(=O)N[C@@H](CC(C)C)C(=O)N[C@@H](CCCCN)C(=O)N[C@@H](CC(N)=O)C(N)=O [8C] | 969 nM | –
5 | CC[C@H](C)[C@H](NC(=O)[C@H](Cc1ccccc1)NC(=O)[C@H](CC(C)C)NC(=O)[C@H](CCCNC(=N)N)NC(=O)[C@@H](NC(=O)[C@H](C)NC(=O)[C@H](CCC(=O)O)NC(=O)[C@H](CCC(=O)O)NC(=O)[C@H](CCC(=O)O)NC(=O)[C@H](CC(C)C)NC(=O)[C@H](CCC(N)=O)NC(=O)[C@H](CCCCN)NC(=O)[C@H](CO)NC(=O)[C@H](CC(C)C)NC(=O)[C@H](CC(=O)O)NC(=O)[C@H](CO)NC(=O)[C@@H](NC(=O)[C@H](Cc1ccccc1)NC(=O)[C@@H](NC(=O)[C@H]1CSSC[C@H](NC(=O)[C@@H](N)Cc2c[nH]cn2)C(=O)N2CCC[C@H]2C(=O)N1)[C@@H](C)O)[C@@H](C)O)C(C)C)C(=O)N[C@@H](CCC(=O)O)C(=O)N[C@@H](Cc1ccccc1)C(=O)N[C@@H](CC(C)C)C(=O)N[C@@H](CCCCN)C(=O)N[C@@H](CC(N)=O)C(N)=O [8D] | 106 nM | –
6 | CC[C@H](C)[C@H](NC(=O)[C@H](Cc1ccccc1)NC(=O)[C@H](CC(C)C)NC(=O)[C@H](CCCNC(=N)N)NC(=O)[C@@H](NC(=O)[C@H](C)NC(=O)[C@H](CCC(=O)O)NC(=O)[C@H](CCC(=O)O)NC(=O)[C@H](CCC(=O)O)NC(=O)[C@H](CC(C)C)NC(=O)[C@H](CCC(N)=O)NC(=O)[C@H](CCCCN)NC(=O)[C@H](CO)NC(=O)[C@H](CC(C)C)NC(=O)[C@H](CC(=O)O)NC(=O)[C@H](CO)NC(=O)[C@@H](NC(=O)[C@H](Cc1ccccc1)NC(=O)[C@@H](NC(=O)CN1CC[C@@H](C(=O)O)[C@H](NC(=O)[C@H](C)NC(=O)[C@@H](N)Cc2c[nH]cn2)C1=O)[C@@H](C)O)[C@@H](C)O)C(C)C)C(=O)N[C@@H](CCC(=O)O)C(=O)N[C@@H](Cc1c[nH]c2ccccc12)C(=O)N[C@@H](CC(C)C)C(=O)N[C@@H](CCCCN)C(=O)N[C@@H](CCC(N)=O)C(=O)NCC(=O)NCC(=O)N1CCC[C@H]1C(=O)N[C@@H](CO)C(=O)N[C@@H](CCCCN)C(=O)N[C@@H](CCC(=O)O)C(=O)N[C@H](C(=O)N[C@H](C(=O)N[C@@H](CO)C(=O)O)[C@@H](C)CC)[C@@H](C)CC [16B] | 0.18 nM | –
7 | CC[C@H](C)[C@H](NC(=O)[C@H](Cc1ccccc1)NC(=O)[C@H](CC(C)C)NC(=O)[C@H](CCCNC(=N)N)NC(=O)[C@@H](NC(=O)[C@H](C)NC(=O)[C@H](CCC(=O)O)NC(=O)[C@H](CCC(=O)O)NC(=O)[C@H](CCC(=O)O)NC(=O)[C@H](CCSC)NC(=O)[C@H](CCC(N)=O)NC(=O)[C@H](CCCCN)NC(=O)[C@H](CO)NC(=O)[C@H](CC(C)C)NC(=O)[C@H](CC(=O)O)NC(=O)[C@H](CO)NC(=O)[C@@H](NC(=O)[C@H](Cc1ccccc1)NC(=O)[C@@H](NC(=O)CNC(=O)[C@@H]1CCCN1C(=O)[C@H](C)NC(=O)CCc1c[nH]cn1)[C@@H](C)O)[C@@H](C)O)C(C)C)C(=O)N[C@@H](CCC(=O)O)C(=O)N[C@@H](Cc1c[nH]c2ccccc12)C(=O)N[C@@H](CC(C)C)C(=O)N[C@@H](CCCCN)C(=O)N[C@@H](CC(N)=O)C(=O)N[C@@H](CCCCNC(=O)CCCC[C@@H]1SC[C@@H]2NC(=O)N[C@@H]21)C(N)=O [Compound 24D] | – | EC50 (Table 3, methods of Example 16): 0.77 nM
8 | CC[C@H](C)[C@H](NC(=O)[C@H](Cc1ccccc1)NC(=O)[C@H](CC(C)C)NC(=O)[C@H](CCCNC(=N)N)NC(=O)[C@@H](NC(=O)[C@H](C)NC(=O)[C@H](CCC(=O)O)NC(=O)[C@H](CCC(=O)O)NC(=O)[C@H](CCC(=O)O)NC(=O)[C@H](CC(C)C)NC(=O)[C@H](CCC(N)=O)NC(=O)[C@H](CCCCN)NC(=O)[C@H](CO)NC(=O)[C@H](CC(C)C)NC(=O)[C@H](CC(=O)O)NC(=O)[C@H](CO)NC(=O)[C@@H](NC(=O)[C@H](Cc1ccccc1)NC(=O)[C@@H](NC(=O)CNC(=O)[C@@H]1CCCN1C(=O)[C@H]1CSC([C@@H](N)Cc2c[nH]cn2)N1)[C@@H](C)O)[C@@H](C)O)C(C)C)C(=O)N[C@@H](CCC(=O)O)C(=O)N[C@@H](Cc1ccccc1)C(=O)N[C@@H](CC(C)C)C(=O)N[C@@H](CCCCN)C(=O)N[C@@H](CC(N)=O)C(N)=O (some centres unmarked) [Compound in Figure 17B] | 668 nM | –
